Series [1] can be described thus: Chemical stability in simulated gastric fluid (SGF) without pepsin. It is filed as physicochemical. As to conditions: 50 μM prodrug. The procedure:
(§1) Chemical stability of creatine prodrugs in phosphate buffered saline (PBS), simulated intestinal fluid (SIF) without pancreatin, simulated gastric fluid (SGF) without pepsin were determined by LC-UV, LC-CAD, LC-UV-CAD or LC-MS/MS as appropriate. Creatine prodrugs of the present disclosure (50 μM) were incubated at 37° C. according to described protocols and prodrug levels were compared between t=0, t=15, t=60, and t=120 mins by peak area ratio to determine the percentage remained at t=120 mins (2 h).
(§2) Protocol for PBS, SIF and SGF stability for screening:
(§3) Prodrugs (50 μM) were incubated in PBS, FaSSIF (Biorelevant) or FaSSGF (Biorelevant) at 37° C.

Series [2] can be described thus: Plasma stability, human plasma. It is filed as in vitro ADME. As to conditions: for half-life: 37 °C, read-out: Plasma Stability Human t1/2. The protocol:
(§4) The stabilities of creatine prodrugs can be evaluated in one or more in vitro systems using a variety of preparations following methods known in the art. Experimental conditions useful for the in vitro studies are described in Table 1. Prodrug is added to each preparation in triplicate. […]
(§5) Protocol for plasma stability for early screen macrocycles (Method A):
(§6) Frozen plasma was thawed by placing at 37° C. quickly and centrifuged at 3,000 rpm for 8 minutes to remove clots. Then the supernatant was pipetted and pooled as the plasma to be used in the experiment. The plasma was placed on ice until used. The test compounds and reference compounds spiking solution was prepared as a 2.5 mM test compounds spiking solution A: Add 20 μL of 10 mM test compounds stock solution to 60 μL DMSO. 0.1 mM Spiking solution B was prepared: Add 40 μL of spiking solution A to 960 μL of […] Sodium phosphate buffer with 0.5% BSA. […] For 0-min, 400 μL of ACN containing IS was added to the wells of 0-min plate and then 90 μL of plasma was added. […] 50 μL of the supernatant was transferred from each well into a 96-well sample plate containing 120 μL of ultra pure water (Millipore, ZMQS50F01) and analyzed by LC/MS.
(§7) Protocol for plasma stability (Method B):
(§8) The frozen plasma was thawed in a 37° C. water bath and then, if needed, adjusted to pH=7.4 then preheated in a 37° C. incubator. The test article was dissolved in 10% DMSO/water and spiked into plasma pre-plated into 96 well plates at a final concentration of 1 μM. Discrete incubations were performed at 37° C. and included 5 time points: t=0, 2, 5, 15, and 30 min. Samples were then crashed with 4× volume, ice cold 20% water/80% acetonitrile and spun at 4000 g for 10 mins. The supernatant was dried down and reconstituted with water and analyzed by LC-MS/MS. The half life in minute was calculated.

Series [3] can be described thus: Plasma stability, mouse plasma. The format is in vitro ADME. As to conditions: for half-life: 37 °C, read-out: Plasma Stability Mouse t1/2. The protocol: as §4, §5, §6, §7, §8
A short description of series [4]: Liver microsome stability, mouse. The format is in vitro ADME. As to conditions: liver microsomes, read-out: Microsome Stability Mouse t1/2. The procedure: as §4
(§9) Protocol for Microsomal Stability:
(§10) For reference compound, a 500 μM spiking solution was prepared: add 10 μL of 10 mM DMSO stock solution into 190 μL ACN. […] For test compound, a 5 mM spiking solution was prepared: add 10 μL of 10 mM DMSO stock solution into 10 μL ACN. […] NADPH stock solution (6 mM) was prepared by dissolving NADPH into buffer 0.1 M Potassium Phosphate buffer, 1.0 mM EDTA, pH 7.4. […] For 0-min, 135 μL of ACN containing IS was added to the wells of 0-min plate and then 15 μL of NADPH stock solution (6 mM) was added. 15 μL of NADPH stock solution (6 mM) was added to the samples designated as 0-, 5-, 10-, 20-, 30-min, 60-min; 15 μL of buffer 0.1 M Potassium Phosphate buffer, 1.0 mM EDTA, pH 7.4, was added to the samples designated as 60-min without NADPH. At 5-min, 10-min, 20-min, and 30-min, 60-min 135 μL of ACN containing IS was added to the wells of corresponding plates, respectively, to stop the reaction. […] 50 μL of the supernatant from each well was transferred into a 96-well sample plate containing 50 μL of ultra pure water (Millipore, ZMQS50FOI) and analyzed by LC/MS.
Background: Microsomes from liver hold many membrane-bound enzymes, among them those of drug oxidation.

Series [5] is described as follows: Chemical stability in phosphate buffered saline (PBS). As to conditions: 50 μM prodrug. It is filed as physicochemical. The procedure:
as §1, §2, §3

Series [6] can be described thus: Liver microsome stability, human. The format is in vitro ADME. As to conditions: liver microsomes, read-out: Microsome Stability Human t1/2. The protocol:
as §4, §9, §10

`[2H]C([2H])([2H])N(CC(=O)[O-])C(=N)NC(=O)CCCCC/C=C\CCCCCCCCCC.[Na+]` [Compound 26]: the “Chemical Stability SGF, no enzyme % T0 at 2 hours at 37 °C.” value (shortened to “Chemical Stability SGF, no enzyme % T0”) in series [1] (Table 2A) is reported as 95%. Besides, the half-life in series [2] (Table 2A) and in series [3] (Table 2A) was greater than 180 min in each case. In addition, the half-life at 10 μM is greater than 145 min in series [4] (pH 7.4, Table 2A) and 68 min in series [6] (pH 7.4, Table 2A). The “Chemical Stability PBS % T0 at 2 hours at 37 °C.” value (from here on “Chemical Stability PBS % T0”) in series [5] (Table 2A) was 45%.

Consider `[2H]C([2H])([2H])N(CC(=O)[O-])C(=N)NC(=O)CCCCCCCCCC/C=C\CCCCC.[Na+]` [Compound 27], for which the “Chemical Stability SGF, no enzyme % T0” value in series [1] (Table 2A) is 96%. In addition, the half-life in series [2] (Table 2A) and in series [3] (Table 2A) was greater than 180 min throughout. The half-life at 10 μM in series [4] (pH 7.4, Table 2A) is 10 min; in series [6] (pH 7.4, Table 2A) it was 14 min. In addition, the “Chemical Stability PBS % T0” value in series [5] (Table 2A) turned out to be 67%.

On to `[2H]C([2H])([2H])N(CC(=O)[O-])C(=N)NC(=O)CCCCCCC.[Li+]` [Compound 37], for which the half-life in series [2] (Table 2A) and in series [3] (Table 2A) was greater than 180 min throughout. The half-life at 10 μM in series [4] (pH 7.4, Table 2A) is greater than 145 min; in series [6] (pH 7.4, Table 2A) it was 114 min.

In the case of `[2H]C([2H])([2H])N(CC(=O)OC(C)(C)C(C)(C)O)C(=N)NC(=O)CCCCCC` [Compound 63], the “Chemical Stability SGF, no enzyme % T0” value in series [1] (Table 2B) is 101%. Further, the half-life in series [2] (Table 2B) and in series [3] (Table 2B) was less than 5 min throughout. The half-life at 10 μM was less than 5 min in series [4] (pH 7.4, Table 2B) and less than 5 min in series [6] (pH 7.4, Table 2B). For the same compound, the “Chemical Stability PBS % T0” value in series [5] (Table 2B) stood at 58%.

In the case of `[2H]C([2H])([2H])N1CC(=O)OCCCCCCCCC(=O)NC1=N` [Compound DD, 5-imino-4-trideuteriomethyl-1-oxa-4,6-diazacyclopentadecane-2,7-dione], the half-life in series [2] (Table 2C, macrocycles) was 8.3 min; in series [3] (Table 2C, macrocycles) it was less than 2 min.

Regarding `Cl.[2H]C([2H])([2H])N1CC(=O)O[C@@H](C)CCCCCCCCCC(=O)NC1=N` [Compound PP, (S)-5-imino-17-methyl-4-(methyl-d3)-1-oxa-4,6-diazacycloheptadecane-2,7-dione Hydrochloride], the half-life in series [2] (Table 2C, macrocycles) is 8 min; in series [3] (Table 2C, macrocycles), 1.1 min.

Take `Cl.[2H]C([2H])([2H])N(CC(=O)OCc1oc(=O)oc1C)C(=N)NC(=O)CCCCCCCCCC` [Compound 48]: the “Chemical Stability SGF, no enzyme % T0” value in series [1] (Table 2A) is listed as 98%. In addition, the “Chemical Stability PBS % T0” value in series [5] (Table 2A) is listed as 97%.

`Cl.[2H]C([2H])([2H])N1CC(=O)OC(CC)CCCCCCCCCC(=O)NC1=N` (stereo not shown) [Compound L, 17-ethyl-5-imino-4-trideuteriomethyl-1-oxa-4,6-diazacycloheptadecane-2,7-dione Hydrochloric Acid Salt]: the half-life turned out to be 34 min in series [2] (Table 2C, macrocycles) and 3 min in series [3] (Table 2C, macrocycles). The half-life at 10 μM in series [4] (pH 7.4, Table 2C) stood at 0.6 min; in series [6] (pH 7.4, Table 2C), 1.6 min.

Consider `[2H]C([2H])([2H])N1CC(=O)N=C1NC(=O)CCCCCCCCCC` [Compound 49], for which, in series [1] (Table 2A), the “Chemical Stability SGF, no enzyme % T0” value is given as 62%. Moreover, the results for the half-life in series [2] (Table 2A) and in series [3] (Table 2A) were greater than 180 min and 47 min, respectively. Moreover, the half-life at 10 μM in series [4] (pH 7.4, Table 2A) is less than 5 min; in series [6] (pH 7.4, Table 2A), 24 min. The “Chemical Stability PBS % T0” value in series [5] (Table 2A) stood at 87%.

With `[2H]C([2H])([2H])N(CC(=O)OC(C)(C)C(C)C)C(=N)NC(=O)CCCCCC` [Compound 60], the “Chemical Stability SGF, no enzyme % T0” value in series [1] (Table 2B) is 99%. In addition, the half-life in series [2] (Table 2B) and in series [3] (Table 2B) was greater than 180 min throughout. Besides, the half-life at 10 μM in series [4] (pH 7.4, Table 2B) is less than 5 min; in series [6] (pH 7.4, Table 2B) it was less than 5 min. Further, the “Chemical Stability PBS % T0” value in series [5] (Table 2B) is given as 101%.

Regarding `Cl.[2H]C([2H])([2H])N(CC(=O)OC(C)(C)C(F)(F)F)C(=N)NC(=O)CCCCCCCCCC` [Compound 59], in series [1] (Table 2B), the “Chemical Stability SGF, no enzyme % T0” value is 30%. In series [5] (Table 2B), the “Chemical Stability PBS % T0” value is 101%.

In the case of `Cl.[2H]C([2H])([2H])N(CC(=O)OC(C)C(C)(C)C)C(=N)NC(=O)CCCCCC` (stereo not shown) [Compound 53], the “Chemical Stability SGF, no enzyme % T0” value in series [1] (Table 2B) is 91%. For the same compound, in series [5] (Table 2B), the “Chemical Stability PBS % T0” value was found to be 64%.

Turning to `[2H]C([2H])([2H])N(CC(=O)[O-])C(=N)NC(=O)CCCCCCCCCC.[Na+]` [Compound 32], the half-life in series [2] (Table 2A) and in series [3] (Table 2A) was greater than 180 min each time. Also, the half-life at 10 μM is greater than 145 min in series [4] (pH 7.4, Table 2A) and 110 min in series [6] (pH 7.4, Table 2A).

With `O=CO.[2H]C([2H])([2H])N1CC(=O)OCCCCCCCCCC(=O)NC1=N` [Compound SS, 5-imino-4-trideuteriomethyl-1-oxa-4,6-diazacyclohexadecane-2,7-dione Formic Acid Salt], the “Chemical Stability SGF, no enzyme % T0” value in series [1] (Table 2C) is reported as 85%. Moreover, the half-life in series [2] (Table 2C, macrocycles) is greater than 90 min. The “Chemical Stability PBS % T0” value in series [5] (Table 2C) was found to be 0%.

As to `[2H]C([2H])([2H])N(CC(=O)O)C(=NC(=O)OC(C)(C)C)NC(=O)CCCCCCCCCC` [Compound 34], the half-life in series [2] (Table 2A) and in series [3] (Table 2A) was greater than 180 min throughout. Also, the half-life at 10 μM in series [4] (pH 7.4, Table 2A) was 123 min; in series [6] (pH 7.4, Table 2A), greater than 180 min.

On to `Cl.[2H]C([2H])([2H])N1CC(=O)OC(C)CCCCCCCCCC(=O)NC1=N` (stereo not shown) [Compound K, 5-imino-4-trideuteriomethylguanidino-17-dimethyl-1-oxa-4,6-diazacycloheptadecane-2,7-dione Dihydrochloride], for which the half-life in series [2] (Table 2C, macrocycles) came out at 13 min; in series [3] (Table 2C, macrocycles), 2 min.

On to `[2H]C([2H])([2H])N1CC(=O)OCCCCCCCCCCCC(=O)NC1=N` [Compound QQ, 5-imino-4-trideuteriomethyl-1-oxa-4,6-diazacyclooctadecane-2,7-dione], for which the “Chemical Stability SGF, no enzyme % T0” value in series [1] (Table 2C) is 79%. For the same compound, the half-life at 10 μM turned out to be 4 min in series [4] (pH 7.4, Table 2C) and 9 min in series [6] (pH 7.4, Table 2C). For the same compound, in series [5] (Table 2C), the “Chemical Stability PBS % T0” value stood at 85%.

`O=CO.[2H]C([2H])([2H])N1CC(=O)OCCCCCCCC(=O)NC1=N` [Compound BB, 5-imino-4-trideuteriomethylguanidino-1-oxa-4,6-diazacyclotetradecane-2,7-dione Formate]: the “Plasma Stability Human t1/2” value in series [2] was 9 min. The “Plasma Stability Mouse t1/2” value in series [3] is on record as less than 2 min.

`[2H]C([2H])([2H])N(CC(=O)[O-])C(=N)NC(=O)CCCCCCCCCO.[Na+]` [Compound 58]: the half-life in series [2] (Table 2B) and in series [3] (Table 2B) was greater than 180 min throughout. For the same compound, the half-life at 10 μM was greater than 90 min in series [4] (pH 7.4, Table 2B) and greater than 90 min in series [6] (pH 7.4, Table 2B).

For `Cl.[2H]C([2H])([2H])N(CC(=O)OC(C)(C)C(F)(F)F)C(=N)NC(=O)CCCCCC` [Compound 55], in series [1] (Table 2B), the “Chemical Stability SGF, no enzyme % T0” value is 94%. The “Chemical Stability PBS % T0” value in series [5] (Table 2B) is 97%.

These data come from patent publication US11332438B2, “Creatine prodrugs, compositions and methods of use thereof” (Ultragenyx Pharmaceutical Inc., priority 2017, dated 2022).
